Assay [1] deals with T1, 5-lipoxygenase (Homo sapiens, UniProt P09917).
T1 construct: Blood is obtained in 50-100 ml quantities from male donors; endogenous in cells; host or cells: human whole blood (leukocytes) from male donors
T1 sequence (P09917 1-674): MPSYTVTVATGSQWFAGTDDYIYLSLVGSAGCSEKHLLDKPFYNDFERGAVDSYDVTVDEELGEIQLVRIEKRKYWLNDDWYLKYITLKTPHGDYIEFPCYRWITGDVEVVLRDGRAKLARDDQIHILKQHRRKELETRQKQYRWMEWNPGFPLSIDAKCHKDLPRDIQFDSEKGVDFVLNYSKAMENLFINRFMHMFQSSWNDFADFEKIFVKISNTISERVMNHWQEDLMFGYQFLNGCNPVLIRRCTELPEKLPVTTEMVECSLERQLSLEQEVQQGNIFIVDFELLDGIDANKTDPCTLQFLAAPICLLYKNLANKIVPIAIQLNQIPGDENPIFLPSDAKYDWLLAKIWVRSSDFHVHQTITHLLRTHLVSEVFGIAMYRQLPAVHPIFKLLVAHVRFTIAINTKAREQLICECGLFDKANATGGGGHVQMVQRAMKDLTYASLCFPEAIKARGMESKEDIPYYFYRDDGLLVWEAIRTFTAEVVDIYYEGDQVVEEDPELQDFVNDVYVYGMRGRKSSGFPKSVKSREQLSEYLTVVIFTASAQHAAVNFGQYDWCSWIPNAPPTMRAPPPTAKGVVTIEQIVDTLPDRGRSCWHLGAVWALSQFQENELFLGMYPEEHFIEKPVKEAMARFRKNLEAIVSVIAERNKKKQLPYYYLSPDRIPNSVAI
The assay is described as follows: inhibition of 5-lipoxygenase in human whole blood (LTB4). The settings on record: human whole blood. It is filed as cell-based. Put shortly: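 Donor whole blood preincubated with compound (final 0.1% DMSO) 10 min at 37 °C, then stimulated with 30 μM calcium ionophore A23187 for 20 min at 37 °C; stopped on ice with 10 mM EGTA. Plasma LTB4 measured by RIA or ELISA, expressed per 10^6 neutrophils; IC50 by regression analysis.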

Assay [2] deals with T2, 5-lipoxygenase (Rattus norvegicus, UniProt P12527).
T2 construct: Peritoneal PMN are obtained from female Wistar rats (150-250 g); endogenous in cells; host or cells: rat glycogen-elicited peritoneal polymorphonuclear leukocytes, intact
T2 sequence (P12527 1-673): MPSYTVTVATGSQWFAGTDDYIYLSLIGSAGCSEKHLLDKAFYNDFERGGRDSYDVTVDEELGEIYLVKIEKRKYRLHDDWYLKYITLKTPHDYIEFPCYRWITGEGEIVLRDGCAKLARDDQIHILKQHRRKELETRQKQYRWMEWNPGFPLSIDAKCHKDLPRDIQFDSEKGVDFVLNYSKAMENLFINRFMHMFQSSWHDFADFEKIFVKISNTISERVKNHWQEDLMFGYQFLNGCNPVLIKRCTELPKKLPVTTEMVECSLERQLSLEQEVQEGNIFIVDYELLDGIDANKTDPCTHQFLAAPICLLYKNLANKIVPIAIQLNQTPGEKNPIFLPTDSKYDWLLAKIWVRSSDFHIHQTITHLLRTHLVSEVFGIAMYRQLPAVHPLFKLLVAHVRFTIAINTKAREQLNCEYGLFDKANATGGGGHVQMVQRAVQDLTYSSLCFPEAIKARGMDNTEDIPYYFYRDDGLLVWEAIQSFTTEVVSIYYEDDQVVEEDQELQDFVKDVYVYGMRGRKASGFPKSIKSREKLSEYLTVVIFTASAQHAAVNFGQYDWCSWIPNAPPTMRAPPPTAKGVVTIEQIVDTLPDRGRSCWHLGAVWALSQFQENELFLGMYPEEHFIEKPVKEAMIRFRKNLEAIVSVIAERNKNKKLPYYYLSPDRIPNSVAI
The assay is described as follows: inhibition of 5-HETE synthesis by rat glycogen elicited polymorphonuclear leukocytes. The format is cell-based. The settings on record: 10 μM, rat PMN, negative = potentiation of 5-HETE synthesis. The method, boiled down: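 Peritoneal PMN from female Wistar rats given i.p. glycogen 24 h earlier were preincubated with compound for 10 min at 37° C (2×10^7 cells/ml, 10 mM L-cysteine). They were then stimulated 10 min with 10 μM A23187 plus 0.5 μM [14C]arachidonic acid. 5-HETE was separated by TLC and quantified by scintillation.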

The term inhibition denotes the percentage by which the read-out fell short of the control.

Where a name gives a salt, the structure may show the parent alone.

Take `C[C@H](C(=O)N(C)O)c1ccc2cc(OCc3ccc4ccccc4n3)ccc2c1` [Example 24, (S)-N-Hydroxy-α-N-dimethyl-6-(2-quinolinylmethoxy)-2-naphthaleneacetamide]: the inhibition at 5 µM on 5-lipoxygenase [1] (5 μM, read-out: % Inhibition of LTB4) was determined as 44%. In addition, the inhibition at 10 µM at 5-lipoxygenase [2] (read-out: % Inhibition of 5-LO (as 5-HETE)) was determined as 100%.

As for `C[C@H](C(=O)O)c1ccc2cc(OCc3ccc4ccccc4n3)ccc2c1` [Example 17, S-(α)-α-Methyl-6-(2-quinolinylmethoxy)-2-naphthaleneacetic acid, tromethanime salt], the inhibition at 25 µM against 5-lipoxygenase [1] (25 μM) amounted to 19%. The “% Inhibition of 5-LO (as 5-HETE)” value on 5-lipoxygenase [2] came out at 85%.

For the origin of these results see US5208344A, “Naphthalenepropionic acid derivatives as anti-inflammatory/antiallergic agents” (American Home Products Corporation, priority 1991, dated 1993).
